Results from patent publication US12612387B2, “RAS inhibitors and methods of using the same” (Jazz Pharmaceuticals Ireland Limited, priority 2020, dated 2026).

How the values were obtained:
[1] = target: T1, K-RAS G12C (Homo sapiens, UniProt P01116, G12C); assay: Compound depletion assay, K-RAS G12C; assay type: binding; details: G12C protein 20 μM, compound 8 μM, 25° C.
T1 construct: His tag; purchased Stratech
Experimental: (§1) Compound Depletion Assay Method
(§2) Lyophilized human K-RAS (12 Cys) protein (His tag) and human K-RAS (12 Asp) protein (His tag) were purchased from Stratech and reconstituted at 30 μM in water. The protein concentration of K-RAS G12C and K-RAS G12D was adjusted to 20 μM in K-RAS Assay Buffer (20 mM HEPES pH 7.5, 150 mM NaCl, 1 mM MgCl2). A 49 μl aliquot of protein solution was transferred to 1.5 ml eppendorfs and incubated at room temperature for 10 minutes. A 1 μl aliquot of compound solution in DMSO was added to the protein solutions in the 1.5 ml eppendorfs to initiate the reaction, with a final assay compound concentration of 8 μM. Reactions were agitated at 25° C., 700 rpm. At each time point (0, 30, 180, 360, 1440 minutes), 10 μl of the reaction mixture was removed, added to 30 μl quench solution (0.3% formic acid, 75 nM propranolol in acetonitrile) to stop the reaction and stored at 4° C. Once all reactions were quenched, the samples were centrifuged at 16000 g for 10 minutes to pellet the protein and salts. A 10 μl aliquot of supernatant containing compound was diluted in 50:50 acetonitrile:H2O in a 96 well plate. The plates were heat sealed and the samples analysed by LC-MS/MS to determine the concentration of compound remaining in the samples. To determine the reaction progress, the compound signal was normalized to the internal standard signal (propranolol). The decrease in free compound concentration is shown as a percentage over time, with the […] at time zero fixed at one hundred percent. Compound is assumed to be completely depleted when no longer detectable with a double blank sample as reference.

[2] = target: T2, K-RAS G12D (Homo sapiens, UniProt P01116, G12D); assay: Compound depletion assay, K-RAS G12D; assay type: binding; details: G12D protein 20 μM, compound 8 μM, 25° C.
T2 construct: His tag; purchased Stratech
T2 sequence (P01116 1-188 isoform P01116-2 G12D): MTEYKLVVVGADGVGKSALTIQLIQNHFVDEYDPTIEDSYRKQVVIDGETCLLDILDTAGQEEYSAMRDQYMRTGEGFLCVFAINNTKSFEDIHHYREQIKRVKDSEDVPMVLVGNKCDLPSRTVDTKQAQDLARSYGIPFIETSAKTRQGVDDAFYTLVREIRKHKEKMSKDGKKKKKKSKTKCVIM
Experimental: as §1, §2

T1 sequence (P01116 1-188 isoform P01116-2 G12C): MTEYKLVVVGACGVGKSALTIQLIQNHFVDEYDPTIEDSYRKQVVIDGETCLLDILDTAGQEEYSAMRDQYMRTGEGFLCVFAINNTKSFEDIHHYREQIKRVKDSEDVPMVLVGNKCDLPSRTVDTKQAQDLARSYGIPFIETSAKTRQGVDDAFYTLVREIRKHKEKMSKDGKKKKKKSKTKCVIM

30 min Category (compound remaining at timepoint) [1]	3 hr Category (compound remaining at timepoint) [1]	6 hr Category (compound remaining at timepoint) [1]	30 min Category (compound remaining at timepoint) [2]	3 hr Category (compound remaining at timepoint) [2]	6 hr Category (compound remaining at timepoint) [2]	Compound
A (≥70% compound remaining at timepoint)	A (≥70% compound remaining at timepoint)	A (≥70% compound remaining at timepoint)	A (≥70% compound remaining at timepoint)	A (≥70% compound remaining at timepoint)	A (≥70% compound remaining at timepoint)	C=CC(=O)N1CCN(c2cc(C(=O)Nc3cc(O)cc4ccccc34)nc(-c3ccncc3)n2)C[C@@H]1CC#N [Example 26, 6-[(3S)-3-(cyanomethyl)-4-prop-2-enoyl-piperazin-1-yl]-N-(3-hydroxy-1-naphthyl)-2-(4-pyridyl)pyrimidine-4-carboxamide]
A (≥70% compound remaining at timepoint)	A (≥70% compound remaining at timepoint)	A (≥70% compound remaining at timepoint)	A (≥70% compound remaining at timepoint)	A (≥70% compound remaining at timepoint)	A (≥70% compound remaining at timepoint)	C=CC(=O)N1CCN(c2cc(C(=O)Nc3cc(O)cc4ccccc34)nc(-c3ccc4cnn(C)c4c3)n2)C[C@@H]1CC#N [Example 32, 6-[(3S)-3-(cyanomethyl)-4-prop-2-enoyl-piperazin-1-yl]-N-(3-hydroxy-1-naphthyl)-2-(1-methylindazol-6-yl)pyrimidine-4-carboxamide]

Compound	30 min Category (compound remaining at timepoint) [1]	3 hr Category (compound remaining at timepoint) [1]	6 hr Category (compound remaining at timepoint) [1]	30 min Category (compound remaining at timepoint) [2]	3 hr Category (compound remaining at timepoint) [2]	6 hr Category (compound remaining at timepoint) [2]
C=CC(=O)N1CCN(c2cc(C(=O)Nc3cc(O)cc4ccccc34)nc(NCCN3CCN(C)CC3)n2)C[C@@H]1CC#N [Example 27, 6-[(3S)-3-(cyanomethyl)-4-prop-2-enoyl-piperazin-1-yl]-N-(3-hydroxy-1-naphthyl)-2-[2-(4-methylpiperazin-1-yl)ethylamino]pyrimidine-4-carboxamide]	A (≥70% compound remaining at timepoint)	B (30%-70% compound remaining at timepoint)	C (≤30% compound remaining at timepoint)	A (≥70% compound remaining at timepoint)	A (≥70% compound remaining at timepoint)	A (≥70% compound remaining at timepoint)
C=CC(=O)N1CCN(c2cc(C(=O)Nc3cc(O)cc4ccccc34)nc(NCCN3CCOCC3)n2)C[C@@H]1CC#N [Example 28, 6-[(3S)-3-(cyanomethyl)-4-prop-2-enoyl-piperazin-1-yl]-N-(3-hydroxy-1-naphthyl)-2-(2-morpholinoethylamino)pyrimidine-4-carboxamide]	A (≥70% compound remaining at timepoint)	A (≥70% compound remaining at timepoint)	B (30%-70% compound remaining at timepoint)	A (≥70% compound remaining at timepoint)	A (≥70% compound remaining at timepoint)	A (≥70% compound remaining at timepoint)
C=CC(=O)N1CCN(c2cc(C(=O)Nc3cc(O)cc4ccccc34)nc(NCCN(C)C)n2)C[C@@H]1CC#N [Example 29, 6-[(3S)-3-(cyanomethyl)-4-prop-2-enoyl-piperazin-1-yl]-2-[2-(dimethylamino)ethylamino]-N-(3-hydroxy-1-naphthyl)pyrimidine-4-carboxamide]	A (≥70% compound remaining at timepoint)	B (30%-70% compound remaining at timepoint)	C (≤30% compound remaining at timepoint)	A (≥70% compound remaining at timepoint)	A (≥70% compound remaining at timepoint)	A (≥70% compound remaining at timepoint)
C=CC(=O)N1CCN(c2cc(C(=O)Nc3cc(O)cc4ccccc34)nc(NCCC3CCCN3C)n2)C[C@@H]1CC#N (stereo partly drawn) [Example 30, 6-[(3S)-3-(cyanomethyl)-4-prop-2-enoyl-piperazin-1-yl]-N-(3-hydroxy-1-naphthyl)-2-[2-(1-methylpyrrolidin-2-yl)ethylamino]pyrimidine-4-carboxamide]	B (30%-70% compound remaining at timepoint)	C (≤30% compound remaining at timepoint)	C (≤30% compound remaining at timepoint)	A (≥70% compound remaining at timepoint)	A (≥70% compound remaining at timepoint)	A (≥70% compound remaining at timepoint)
C=CC(=O)N1CCN(c2cc(C(=O)Nc3cc(O)cc4ccccc34)nc(-c3ccccn3)n2)C[C@@H]1CC#N [Example 31, 6-[(3S)-3-(cyanomethyl)-4-prop-2-enoyl-piperazin-1-yl]-N-(3-hydroxy-1-naphthyl)-2-(2-pyridyl)pyrimidine-4-carboxamide]	A (≥70% compound remaining at timepoint)	B (30%-70% compound remaining at timepoint)	B (30%-70% compound remaining at timepoint)	A (≥70% compound remaining at timepoint)	A (≥70% compound remaining at timepoint)	A (≥70% compound remaining at timepoint)
C=CC(=O)N1CCN(c2cc(C(=O)Nc3cc(O)cc4ccccc34)nc(OC[C@H]3CCCN3C)n2)C[C@@H]1CC#N [Example 34, 6-[(3S)-3-(cyanomethyl)-4-prop-2-enoyl-piperazin-1-yl]-N-(3-hydroxy-1-naphthyl)-2-[[(2R)-1-methylpyrrolidin-2-yl]methoxy]pyrimidine-4-carboxamide]	B (30%-70% compound remaining at timepoint)	C (≤30% compound remaining at timepoint)	C (≤30% compound remaining at timepoint)	A (≥70% compound remaining at timepoint)	A (≥70% compound remaining at timepoint)	A (≥70% compound remaining at timepoint)
C=CC(=O)N1CCN(c2cc(C(=O)Nc3cc(O)cc4ccccc34)nc(OCc3ccnn3C)n2)C[C@@H]1CC#N [Example 35, 6-[(3S)-3-(cyanomethyl)-4-prop-2-enoyl-piperazin-1-yl]-N-(3-hydroxy-1-naphthyl)-2-[(2-methylpyrazol-3-yl)methoxy]pyrimidine-4-carboxamide]	B (30%-70% compound remaining at timepoint)	C (≤30% compound remaining at timepoint)	C (≤30% compound remaining at timepoint)	A (≥70% compound remaining at timepoint)	A (≥70% compound remaining at timepoint)	A (≥70% compound remaining at timepoint)
C=CC(=O)N1CCN(c2cc(C(=O)Nc3cc(O)cc4ccccc34)nc(NCc3cnn(C)c3)n2)C[C@@H]1CC#N [Example 36, 6-[(3S)-3-(cyanomethyl)-4-prop-2-enoyl-piperazin-1-yl]-N-(3-hydroxy-1-naphthyl)-2-[(1-methylpyrazol-4-yl)methylamino]pyrimidine-4-carboxamide]	A (≥70% compound remaining at timepoint)	A (≥70% compound remaining at timepoint)	B (30%-70% compound remaining at timepoint)	A (≥70% compound remaining at timepoint)	A (≥70% compound remaining at timepoint)	A (≥70% compound remaining at timepoint)
C=CC(=O)N1CCN(c2cc(C(=O)Nc3cc(O)cc4ccccc34)nc(N3CCN(CCO)CC3)n2)C[C@@H]1CC#N [Example 37, 6-[(3S)-3-(cyanomethyl)-4-prop-2-enoyl-piperazin-1-yl]-2-[4-(2-hydroxyethyl)piperazin-1-yl]-N-(3-hydroxy-1-naphthyl)pyrimidine-4-carboxamide]	B (30%-70% compound remaining at timepoint)	C (≤30% compound remaining at timepoint)	C (≤30% compound remaining at timepoint)	A (≥70% compound remaining at timepoint)	A (≥70% compound remaining at timepoint)	A (≥70% compound remaining at timepoint)
